# Laboratory results: patent US11999971B2, “Stem cell derived islet differentiation” (Vertex Pharmaceuticals Incorporated, priority 2018, dated 2024)
# Assays:
# Assay type in all cases: cell-based, human
# [1] = tested on: Pdx1 expressing pancreatic progenitor cells (Stage 4/Stage 5 differentiation); test: TNKS/Wnt inhibitor in Stage 4 and/or Stage 5 medium; cell composition at end of Stage 5
# Description: (§1) In certain embodiments described herein, induced pluripotent stem cells are differentiated into SC-Di cells or precursors thereof in vitro. An exemplary differentiation protocol is outlined in FIG. 39. Endocrine progenitor cells produced by Stage 5 can comprise a mixture of cell types. For example, the composition can include NKX6.1+/ISL1+β cells, NKX6.1−/ISL1+α cells, NKX6.1−/ISL1− double negative cells, and enterochromaffin (EC) cells (FIG. 18B and FIG. 18C). For example, FIG. 18B and FIG. 18C show a Stage 5 process intermediate cell composition that comprises about 25% NKX6.1+/ISL1+β cells, about 14.5% NKX6.1−/ISL1+α cells, about 42.4% NKX6.1−/ISL1− double negative cells, and about 18.0% enterochromaffin (EC) cells. For certain applications described herein, such as the production of SC-islets, both NKX6.1−/ISL1− double negative (DN)SC-cells and SC-enterochromaffin (EC) cells are off target cell populations. To improve the Stage 5 cellular composition (e.g., increased percentage of NKX6.1+/ISL1+ SC-β cells and NKX6.1−/ISL1+ SC-α cells; decreased percentage of NKX6.1−/ISL1− SC-DN cells and SC-EC cells), modifications to the Stage 4 and/or Stage 5 medium were evaluated (FIG. 19).
# As shown in FIGS. 20A-20B and FIGS. 21A-21B, TNKS/Wnt inhibition during Stage 4 increased the percentage of NKX6.1+/ISL1+β cells (FIG. 21A; FIGS. 20A-20B) and decreased the percentage of NKX6.1−/ISL1− double negative cells (FIG. 21B; FIGS. 20A-20B) at the end of stage 5. Multiple TNKS/Wnt inhibitors that increase the percentage of NKX6.1+/ISL1+β cells at the end of Stage 5 at least two-fold over the control were identified (FIG. 28).
# FIGS. 30A-30B show TNKS inhibition increases the percentage of NKX6.1+/ISL1+SC-β cells and decreases the percentage of NKX6.1−/ISL1− SC-DN cells at the end of Stage 5 when TNK inhibitor is used through several times points through Stage 4 or Stage 4 through Stage 5, including S4d3-S4d6, S4d3-S5d2, S4d5-S4d6, and S4d5-S5d2.
# [2] = tested on: Pdx1 expressing pancreatic progenitor cells (Stage 4 differentiation); test: PKC inhibitor in modified stage 4 medium during S4d5-S4d6; cell composition at end of Stage 5; conditions: for change in percentage of NKX6.1+/ISL1+ β cells at the end of Stage 5: FIG. 33A; for change in percentage of NKX6.1+/ISL1− SC-EC cells at the end of Stage 5: FIG. 33B
# [3] = tested on: Pdx1 expressing pancreatic progenitor cells (Stage 4/Stage 5 differentiation); test: PKC activator in Stage 4 and/or Stage 5 medium; FACS analysis of cell composition at end of Stage 5
# Description: as §1
# To further improve the Stage 5 cellular composition (e.g., increased percentage of NKX6.1+/ISL1+β cells and NKX6.1−/ISL1+α cells; decreased percentage of NKX6.1−/ISL1− double negative cells and enterochromaffin (EC) cells), further modifications to the Stage 4 and/or Stage 5 medium were evaluated (FIG. 19).
# As shown in FIGS. 25A-25B and FIG. 27, PKC activation (0.5 μM phorbol 12,13-dibutyrate) during Stage 4 decreases the percentage of VMAT1+ SC-EC cells at the end of Stage 5 from 24.8% to 4.9%.
# FIGS. 35A-35B show PKC activation increases the percentage of NKX6.1−/ISL1+ SC-α cells and decreases the percentage of NKX6.1+/ISL1− SC-EC cells at the end of Stage 5 when a PKC activator is used through several times points through Stage 4 or Stage 4 through Stage 5, including S4d3-S4d6, S4d3-S5d2, S4d5-S4d6, and S4d5-S5d2.
smiles,measurement,setting,value
Cc1cc(N2C[C@@H](C)N[C@@H](C)C2)ncc1-c1ccc(-c2nc3c(ccn3C)c(=O)[nH]2)cc1 [AZ6102],change in percentage of NKX6.1+/ISL1+ SC-β cells at the end of stage 5 vs control,"[1]; 0.5 μM during S4d5-S4d6, FACS, FIG. 30A",increased
same,change in percentage of NKX6.1+/ISL1+ SC-β cells at the end of stage 5 vs control,"[1]; 0.5 μM during Stage 4 or Stage 5, FIG. 31A",increased
same,change in percentage of NKX6.1−/ISL1− SC-DN cells at the end of stage 5 vs control,"[1]; 0.5 μM during Stage 4 or Stage 5, FIG. 31B",decreased
COc1ccc2c(c1)c(C1=C(c3c[nH]c4ccccc34)C(=O)NC1=O)cn2CCCN(C)C [Go 6983],change in percentage of NKX6.1+/ISL1+ β cells at the end of Stage 5,[2],decrease
same,change in percentage of NKX6.1+/ISL1− SC-EC cells at the end of Stage 5,[2],decrease
Cn1cc(C2=C(c3cn(CCCSC(=N)N)c4ccccc34)C(=O)NC2=O)c2ccccc21 [Ro 31-8220],change in percentage of NKX6.1+/ISL1+ β cells at the end of Stage 5,[2],decrease
same,change in percentage of NKX6.1+/ISL1− SC-EC cells at the end of Stage 5,[2],decrease
CN1CCN(c2nc(C3=C(c4c[nH]c5ccccc45)C(=O)NC3=O)c3ccccc3n2)CC1 [Sotrastaurin],change in percentage of NKX6.1+/ISL1+ β cells at the end of Stage 5,[2],decrease
same,change in percentage of NKX6.1+/ISL1− SC-EC cells at the end of Stage 5,[2],decrease
"CCCC(=O)O[C@@H]1[C@@H](C)[C@@]2(O)[C@@H](C=C(CO)C[C@]3(O)C(=O)C(C)=C[C@@H]23)[C@@H]2C(C)(C)[C@]12OC(=O)CCC [phorbol 12,13-dibutyrate, Phorbol 12,13-dibutyrate]",percentage of NKX6.1+/ISL1− SC-EC cells at the end of Stage 5,"[3]; 0.5 μM during S4d5-S5d2, control 32.1%",14.7%
same,percentage of NKX6.1−/ISL1+ SC-α cells at the end of Stage 5,"[3]; 0.5 μM during S4d5-S5d2, control printed 1 1.3%",38.2%
same,percentage of glucagon+ SC-α cells at the end of Stage 5,"[3]; 0.5 μM during Stage 4, control 5.7%",23.7%
same,percentage of ARX+ SC-α cells at the end of Stage 5,"[3]; 0.5 μM during Stage 4, control 10.4%",38.4%
same,percentage of VMAT1+ SC-EC cells at the end of Stage 5,"[3]; 0.5 μM during Stage 4, control 24.8%",4.9%
same,percentage of CDX2+ SC-EC cells at the end of Stage 5,"[3]; 0.5 μM during Stage 4, control 66.4%",21.5%
same,change in percentage of glucagon positive SC-α cells at the end of stage 5 vs control,"[3]; 0.5 μM during stage 4, FACS, FIG. 23",increased
same,change in percentage of ARX positive SC-α cells at the end of stage 5 vs control,"[3]; 0.5 μM during stage 4, FACS, FIG. 24",increased
same,change in percentage of VMAT1 positive SC-EC cells at the end of stage 5 vs control,"[3]; 0.5 μM during stage 4, FACS, FIG. 25",decreased
same,change in percentage of CDX2 positive SC-EC cells at the end of stage 5 vs control,"[3]; 0.5 μM during stage 4, FACS, FIG. 26",decreased
